Consider four compounds from patent publication US4946954A, “Platinum pharmaceutical agents” (priority 1989, dated 1990).

Series [1] deals with murine P388 leukemia. Kind of series: Example XXI: antileukemic activity against murine P388 leukemia, mean survival days and percentage increased life span. Type of series: in vivo. The conditions noted are these: 10 mg/kg i.p. on day 1; 1×10^6 P388 cells i.p.; CD2F1 male mice; 5% ethanol, 95% sterile water. The protocol:
The cyclohexane-1,2-diammine-platinum(II) salt of 2-(acetylamino)-3,4,6-tri-O-acetyl-2-deoxyglucopyranosyl-amino-thioxomethyl-imino diacetic acid and cisplatin were tested against murine P388 leukemia. The murine P388 leukemia system is known to be sensitive to cisplatin. The leukemia was maintained intraperitoneally in female DBA/2 mice.
Prior to administration, cisplatin was dissolved in ethanol. The solution was then adjusted to 5% ethanol, 95% sterile water The cyclohexane-1,2-diammine-platinum(II) salt of 2-(acetylamino)-3,4,6-tri-O-acetyl-2-deoxyglucopyranosylamino-thioxomethyl-imino diacetic acid was dissolved in sterile water at 4 degrees celsius immediately prior to administration.
Each compound was administered intraperitoneally to groups of CD2F1 male mice on day 1 after intraperitoneal implantation of 1×10^6 P388 leukemia cells. P388 antileukemic activity for each compound was assessed by mean survival days and percentage increased life span (% ILS).
% ILS is calculated as follows: […]
(§1) wherein T is the mean survival days of the treated mice and C is the mean survival days of the untreated mice.

The subject of series [2] is murine P388 leukemia. The experiment in a line: Example XXXVII: antileukemic activity against murine P388 leukemia, mean survival days and percentage increased life span. The conditions noted are these: 10 mg/kg i.p. on day 1; 1×10^6 P388 cells i.p.; CD2F1 male mice; in sterile saline. Type of series: in vivo. Here is the method:
The compound 2-[[[3,4,6-tri-O-acetyl-2-(N-acetylamino)-2-deoxy-alpha-D-glucopyranosyl]amino]thioxomethyl]amino]butane-dioato-O,O']-[1,2-cyclohexanediammine-N,N']platinum (II) and cisplatin were tested against murine P388 leukemia. The murine P388 leukemia system is known to be sensitive to cisplatin. The leukemia was maintained intraperitoneally in female DBA/2 mice.
Prior to administration, cisplatin was dissolved in sterile saline (0.85% sodium chloride). The compound 2-[[[3,4,6-tri-O-acetyl-2-(N-acetylamino)-2-deoxy-alpha-D-glucopyranosyl]amino]-thioxomethyl]amino]butanedioato-O,O']-[1,2-cyclohexanediammine-N,N']platinum (II) was dissolved in sterile water at 4° C. immediately prior to administration.
Each compound was administered intraperitoneally to groups of CD2F1 male mice on day 1 after intraperitoneal implantation of 1×10^6 P388 leukemia cells. P388 antileukemic activity for each compound was assessed by mean survival days and percentage increased life span (%ILS).
%ILS is calculated as follows: […]
as §1

The test system of the next series is P388 cells. The experiment in a line: Example XXXIX: Murine Antitumor Activity, P388 Antitumor Activity % ILS. The conditions noted are these: vehicle mean survival 8.5 days. In kind it is in vivo, murine; male CD2F1 mice. The protocol: (§2) Murine Antitumor Activity
(§3) *P388 cells implanted intraperitoneally (i.p.) into male CD2F1 mice
(§4) on Day 0. Drugs (in 5% dextrose) administered i.p. on Day 1. Increase in
(§5) life span (% ILS) was calculated compared to a group of mice receiving
(§6) drug vehicle, with a mean survival of 8.5 days.
(§7) +compound was administered as a suspension.

For the next series, the system named is male CD2F1 mice. The experiment in a line: Example XXXIX: Deaths Due to Drug Toxicity. Type of series: in vivo. Here is the method: as §2, §3, §4, §5, §6, §7
The mark [3] stands for this setting: 150 mg/kg single dose i.p. on Day 1, in 5% dextrose.
[4] abbreviates: 200 mg/kg single dose i.p. on Day 1, in 5% dextrose.
The mark [5] stands for this setting: 250 mg/kg single dose i.p. on Day 1, administered as a suspension.

As to `N.N.[Cl][Pt][Cl]` [cisplatin, cis-diammine-dichloroplatinum (II)], in the series on murine P388 leukemia [1], the “% ILS (percentage increased life span)” value was 83% and the “Mean Survival” value amounted to 17.4 days. In the series on murine P388 leukemia [2], the “% ILS (percentage increased life span)” value was 96% and the “Mean Survival” value is 15.7 days.

With “Cis-R,R-(acetamidomalonato-O,O')(1,2-cyclohexanediamine-N,N')platinum (II) [AMP]”, the “P388 Antitumor Activity: % ILS” value in the series with P388 cells (setting [3]) is 115%; with P388 cells (setting [4]), 93%. Also, the “Deaths Due to Drug Toxicity” value with male CD2F1 mice (setting [4]) was 1/10; in the series with male CD2F1 mice (250 mg/kg single dose i.p. on Day 1, in 5% dextrose), 5/10.

For “Cis-R,R-(formamidomalonato-O,O')(1,2-cyclohexanediamine-N,N') platinum (II) [FMP]”, the “P388 Antitumor Activity: % ILS” value amounted to 84% in the series on P388 cells (150 mg/kg single dose i.p. on Day 1, administered as a suspension); 115% in the series on P388 cells (200 mg/kg single dose i.p. on Day 1, administered as a suspension); 81% in the series with P388 cells (setting [5]). For the same compound, the “Deaths Due to Drug Toxicity” value in the series on male CD2F1 mice (setting [5]) is 2/10.

Take “cis-R,R-[2-[(pentalacetylgluconyl)imino]propanedioato-O,O'](1,2-cyclohexanediammine-N,N')platinum(II) [R,R-AG-AMP]”: the “P388 Antitumor Activity: % ILS” value in the series with P388 cells (setting [3]) is 75%. The “Deaths Due to Drug Toxicity” value with male CD2F1 mice (setting [3]) is recorded as 0/10.
